Reference: patent US12692238B2, “Substituted pyridazinone herbicides” (FMC CORPORATION, priority 2020, dated 2026)

Columns and labels:
Type in all cases: in vivo
[1] = tested on: barnyardgrass (Echinochloa crus-galli); assay: Test A preemergence, barnyardgrass; details: 10 days
Description: (§1) Seeds of plant species selected from barnyardgrass (Echinochloa crus-galli), blackgrass (Alopecurus myosuroides), corn (Zea mays), foxtail, giant (giant foxtail, Setaria faberi), foxtail, green (green foxtail, Setaria viridis), goosegrass (Eleusine indica), kochia (Bassia scoparia), oat, wild (wild oat, Avena fatua), palmer amaranth (pigweed, palmer, Amaranthus palmeri), redroot pigweed (Amaranthus retroflexus), ragweed (common ragweed, Ambrosia artemisiifolia), ryegrass, Italian (Italian ryegrass, Lolium multiflorum), and soybean (Glycine max) were planted into a blend of loam soil and sand and treated preemergence with a directed soil spray using test chemicals formulated in a non-phytotoxic solvent mixture which included a surfactant.
(§2) At the same time, plants selected from these crop and weed species and also wheat (Triticum aestivum), galium (catchweed bedstraw, Galium aparine) and horseweed (Erigeron canadensis) were planted in pots containing the same blend of loam soil and sand and treated with postemergence applications of test chemicals formulated in the same manner. Plants ranged in height from 2 to 10 cm and were in the one- to two-leaf stage for the postemergence treatment. Treated plants and untreated controls were maintained in a greenhouse for 10 days, after which time all treated plants were compared to untreated controls and visually evaluated for injury. Plant response ratings, summarized in Table A, are based on a 0 to 100 scale where 0 is no effect and 100 is complete control. A dash (-) response means no test result.

[2] = tested on: foxtail, giant (giant foxtail, Setaria faberi); assay: Test A preemergence, foxtail, giant; details: 0 to 100 scale, 10 days
Description: as §1, §2

kochia (Bassia scoparia) [3] = assay: Test A preemergence, kochia; details: 0 to 100 scale, 10 days
Description: as §1, §2

[4] = tested on: redroot pigweed (Amaranthus retroflexus); assay: Test A preemergence, redroot pigweed; details: 0 to 100 scale, 10 days
Description: as §1, §2

[5] = tested on: ragweed (common ragweed, Ambrosia artemisiifolia); assay: Test A preemergence, ragweed; details: 0 to 100 scale, 10 days
Description: as §1, §2

[6] = tested on: ryegrass, Italian (Italian ryegrass, Lolium multiflorum); assay: Test A preemergence, ryegrass, Italian; details: 0 to 100 scale, 10 days
Description: as §1, §2

[7] = tested on: barnyardgrass (Echinochloa crus-galli); assay: Test A postemergence, barnyardgrass; details: 10 days
Description: as §1, §2

[8] = tested on: blackgrass (Alopecurus myosuroides); assay: Test A postemergence, blackgrass; details: 10 days
Description: as §1, §2

corn (Zea mays) = assay: Test A postemergence, corn; details: 10 days
Description: as §1, §2

[9] = tested on: foxtail, giant (giant foxtail, Setaria faberi); assay: Test A postemergence, foxtail, giant; details: 10 days
Description: as §1, §2

kochia (Bassia scoparia) [10] = assay: Test A postemergence, kochia; details: 10 days
Description: as §1, §2

[11] = tested on: redroot pigweed (Amaranthus retroflexus); assay: Test A postemergence, redroot pigweed; details: 10 days
Description: as §1, §2

[12] = tested on: ragweed (common ragweed, Ambrosia artemisiifolia); assay: Test A postemergence, ragweed; details: 10 days
Description: as §1, §2

[13] = tested on: ryegrass, Italian (Italian ryegrass, Lolium multiflorum); assay: Test A postemergence, ryegrass, Italian; details: 10 days
Description: as §1, §2

[14] = tested on: wheat (Triticum aestivum); assay: Test A postemergence, wheat; details: 10 days
Description: as §1, §2

[15] = tested on: galium (catchweed bedstraw, Galium aparine); assay: Test A postemergence, galium; details: 10 days
Description: as §1, §2

[16] = tested on: barnyardgrass (Echinochloa crus-galli); assay: Test B flooded paddy test, barnyardgrass; details: 250 g ai/ha, Flood; visually evaluated after 10 to 14 days
Procedure: (§3) Plant species in the flooded paddy test selected from barnyardgrass (Echinochloa crus-galli), ducksalad (Heteranthera limosa), rice (Oryza sativa), and sedge, umbrella (small-flower umbrella sedge, Cyperus difformis) were grown to the 2-leaf stage for testing. At time of treatment, test pots were flooded to 3 cm above the soil surface, treated by application of test compounds directly to the paddy water, and then maintained at that water depth for the duration of the test. Treated plants and controls were maintained in a greenhouse for 10 to 14 days, after which time all species were compared to controls and visually evaluated. Plant response ratings, summarized in Table B, are based on a scale of 0 to 100 where 0 is no effect and 100 is complete control. A dash (-) response means no test result.

[17] = tested on: ducksalad (Heteranthera limosa); assay: Test B flooded paddy test, ducksalad; details: 250 g ai/ha, Flood; visually evaluated after 10 to 14 days
Procedure: as §3

rice (Oryza sativa) = assay: Test B flooded paddy test, rice; details: 250 g ai/ha, Flood; visually evaluated after 10 to 14 days
Procedure: as §3

[18] = tested on: sedge, umbrella (small-flower umbrella sedge, Cyperus difformis); assay: Test B flooded paddy test, sedge, umbrella; details: 250 g ai/ha, Flood; visually evaluated after 10 to 14 days
Procedure: as §3

[19] = 125 g ai/ha, 0 to 100 scale (0 no effect, 100 complete control)
[20] = 31 g ai/ha, postemergence, 0 to 100 scale (0 no effect, 100 complete control)
[21] = Postemergence, 125 g ai/ha, 0 to 100 scale
[22] = Postemergence, 31 g ai/ha, 0 to 100 scale

Row | Structure (SMILES) | Plant response rating, Barnyardgrass ([1]; 31 g ai/ha, 0 to 100 scale) | Plant response rating, Barnyardgrass [1, 19] | Plant response rating, Foxtail, Giant ([2]; 31 g ai/ha) | Plant response rating, Foxtail, Giant ([2]; 125 g ai/ha) | Plant response rating, Kochia (kochia (Bassia scoparia) [3]; 31 g ai/ha) | Plant response rating, Kochia (kochia (Bassia scoparia) [3]; 125 g ai/ha) | Plant response rating, Pigweed, Redroot ([4]; 31 g ai/ha) | Plant response rating, Pigweed, Redroot ([4]; 125 g ai/ha) | Plant response rating, Ragweed ([5]; 31 g ai/ha) | Plant response rating, Ragweed ([5]; 125 g ai/ha) | Plant response rating, Ryegrass, Italian ([6]; 31 g ai/ha) | Plant response rating, Ryegrass, Italian ([6]; 125 g ai/ha) | Plant response rating, Barnyardgrass [7, 21] | Plant response rating, Blackgrass [8, 21] | Plant response rating, Corn (corn (Zea mays); [21]) | Plant response rating, Foxtail, Giant [9, 21] | Plant response rating, Kochia (kochia (Bassia scoparia) [10]; [20]) | Plant response rating, Kochia (kochia (Bassia scoparia) [10]; [21]) | Plant response rating, Pigweed, Redroot [11, 20] | Plant response rating, Pigweed, Redroot [11, 21] | also measured
1 | CC(=O)OCOc1c(Cl)nn(C)c(=O)c1-c1c2cc(C)ccc2cc2ccc(C)cc12 [Compound 23] | 30 | 80 | 0 | 20 | 60 | 90 | 100 | 100 | 40 | 90 | 0 | 0 | 90 | 20 | 40 | 50 | 20 | 80 | 100 | 100 | Plant response rating, Barnyardgrass [7, 20]: 30; Plant response rating, Blackgrass [8, 20]: 40; Plant response rating, Corn (corn (Zea mays); [20]): 0; Plant response rating, Foxtail, Giant [9, 20]: 0; Plant response rating, Ragweed [12, 20]: 70; Plant response rating, Ragweed [12, 21]: 100; Plant response rating, Ryegrass, Italian [13, 20]: 0; Plant response rating, Ryegrass, Italian [13, 21]: 40; Plant response rating, Wheat [14, 20]: 0; Plant response rating, Wheat [14, 21]: 0; Plant response rating, Galium [15, 20]: 70; Plant response rating, Galium [15, 21]: 100; Plant response rating, Barnyardgrass (0 to 100 scale where 0 is no effect and 100 is complete control) [16]: 60; Plant response rating, Ducksalad (0 to 100 scale where 0 is no effect and 100 is complete control) [17]: 95; Plant response rating, Rice (0 to 100 scale where 0 is no effect and 100 is complete control) (rice (Oryza sativa)): 0; Plant response rating, Sedge, Umbrella (0 to 100 scale where 0 is no effect and 100 is complete control) [18]: 75
2 | CC(=O)OCOc1c(C)nn(C)c(=O)c1-c1c2ccccc2c(Cl)c2ccccc12 [Compound 12] | 20 | 90 | 10 | 80 | 0 | 100 | 100 | 100 | 60 | 80 | 70 | 90 | 60 | 30 | 10 | 80 | 40 | 80 | 100 | 100 | Plant response rating, Barnyardgrass [7, 22]: 10; Plant response rating, Blackgrass [8, 22]: 0; Plant response rating, Corn (corn (Zea mays); [22]): 0; Plant response rating, Foxtail, Giant [9, 22]: 20; Plant response rating, Ragweed [12, 20]: 90; Plant response rating, Ragweed [12, 21]: 100; Plant response rating, Ryegrass, Italian [13, 20]: 80; Plant response rating, Ryegrass, Italian [13, 21]: 100; Plant response rating, Wheat [14, 20]: 0; Plant response rating, Wheat [14, 21]: 10; Plant response rating, Galium [15, 20]: 100; Plant response rating, Galium [15, 21]: 100; Plant response rating, Barnyardgrass (0 to 100 scale where 0 is no effect and 100 is complete control) [16]: 0; Plant response rating, Ducksalad (0 to 100 scale where 0 is no effect and 100 is complete control) [17]: 70; Plant response rating, Rice (0 to 100 scale where 0 is no effect and 100 is complete control) (rice (Oryza sativa)): 0; Plant response rating, Sedge, Umbrella (0 to 100 scale where 0 is no effect and 100 is complete control) [18]: 85
3 | CC(=O)OCOc1c(C)nn(C)c(=O)c1-c1c2cc(F)ccc2cc2c(C)cc(C)cc12 [Compound 27] | 0 | 30 | 0 | 70 | 0 | 80 | 100 | 100 | 50 | 100 | 10 | 90 | 30 | 0 | 10 | 30 | 10 | 70 | 100 | 100 | Plant response rating, Barnyardgrass [7, 20]: 20; Plant response rating, Blackgrass [8, 20]: 0; Plant response rating, Corn (corn (Zea mays); [20]): 0; Plant response rating, Foxtail, Giant [9, 20]: 0; Plant response rating, Ragweed [12, 20]: 90; Plant response rating, Ragweed [12, 21]: 90; Plant response rating, Ryegrass, Italian [13, 20]: 100; Plant response rating, Ryegrass, Italian [13, 21]: 100; Plant response rating, Wheat [14, 20]: 0; Plant response rating, Wheat [14, 21]: 0; Plant response rating, Galium [15, 20]: 70; Plant response rating, Galium [15, 21]: 100; Plant response rating, Barnyardgrass (0 to 100 scale where 0 is no effect and 100 is complete control) [16]: 0; Plant response rating, Ducksalad (0 to 100 scale where 0 is no effect and 100 is complete control) [17]: 65; Plant response rating, Rice (0 to 100 scale where 0 is no effect and 100 is complete control) (rice (Oryza sativa)): 15; Plant response rating, Sedge, Umbrella (0 to 100 scale where 0 is no effect and 100 is complete control) [18]: 65
4 | COc1cc(OC)c2cc3ccc(F)cc3c(-c3c(OCOC(C)=O)c(C)nn(C)c3=O)c2c1 [Compound 25] | 0 | 0 | 0 | 0 | 0 | 0 | 0 | 30 | 0 | 0 | 0 | 0 | 10 | 10 | 20 | 20 | 0 | 10 | 80 | 90 | Plant response rating, Barnyardgrass [7, 20]: 0; Plant response rating, Blackgrass [8, 20]: 0; Plant response rating, Corn (corn (Zea mays); [20]): 0; Plant response rating, Foxtail, Giant [9, 20]: 0; Plant response rating, Ragweed [12, 20]: 0; Plant response rating, Ragweed [12, 21]: 0; Plant response rating, Ryegrass, Italian [13, 20]: 0; Plant response rating, Ryegrass, Italian [13, 21]: 0; Plant response rating, Wheat [14, 20]: 0; Plant response rating, Wheat [14, 21]: 0; Plant response rating, Galium [15, 20]: 50; Plant response rating, Galium [15, 21]: 60; Plant response rating, Barnyardgrass (0 to 100 scale where 0 is no effect and 100 is complete control) [16]: 0; Plant response rating, Ducksalad (0 to 100 scale where 0 is no effect and 100 is complete control) [17]: 0; Plant response rating, Rice (0 to 100 scale where 0 is no effect and 100 is complete control) (rice (Oryza sativa)): 0; Plant response rating, Sedge, Umbrella (0 to 100 scale where 0 is no effect and 100 is complete control) [18]: 0
